Results from US8420651B2, “Substituted 1-alkylcinnolin-4(1H)-one derivatives, preparation thereof and therapeutic application of same” (Sanofi, priority 2009, dated 2013).

| SMILES | melting point [°C] |
| --- | --- |
| O=c1c(-c2cccc(C(F)(F)F)c2)nn(CCCCC(F)(F)F)c2ccccc12 | 80 to 81 |
| CCCCCn1nc(-c2cccc(C(F)(F)F)c2)c(=O)c2ccccc21 | 53 to 55 |
| CCCCCn1nc(-c2cccc(C(F)(F)F)c2F)c(=O)c2cccc(OC)c21 | 82 to 84 |
| COc1cccc2c(=O)c(-c3cccc(Cl)c3Cl)nn(CCCNS(C)(=O)=O)c12 | 66 to 68 |
| CS(=O)(=O)NCCCn1nc(-c2cccc(Cl)c2Cl)c(=O)c2ccc(C(F)(F)F)cc21 | 80 to 83 |
| CCCCCn1nc(-c2cccc(C(F)(F)F)c2F)c(=O)c2ccccc21 | 78 to 80 |
| CC[S+]([O-])CCn1nc(-c2cccc(Cl)c2Cl)c(=O)c2cccc(OC)c21 (stereo not drawn) | 128 to 130 |
| COc1cccc2c(=O)c(-c3cccc(Cl)c3Cl)nn(CCCN(C)S(C)(=O)=O)c12 | 179 to 181 |
| CCSCCn1nc(-c2cccc(Cl)c2Cl)c(=O)c2ccc(Cl)cc21 | 75 to 77 |
| CC[S+]([O-])CCn1nc(-c2cccc(Cl)c2Cl)c(=O)c2ccc(Cl)cc21 (stereo not drawn) | 75 to 77 |
| CCS(=O)(=O)CCn1nc(-c2cccc(Cl)c2Cl)c(=O)c2ccc(Cl)cc21 | 76 to 79 |
| CCCCCn1nc(-c2cccc(OC(F)(F)F)c2)c(=O)c2cccc(OC)c21 | 50 to 52 |
| CCOCCn1nc(-c2cccc(Cl)c2Cl)c(=O)c2cccc(OC)c21 | 134 to 135 |
| COc1cccc2c(=O)c(-c3cccc(Cl)c3Cl)nn(CCCNS(=O)(=O)N(C)C)c12 | 62 to 65 |
| O=c1c(-c2cccc(C(F)(F)F)c2F)nn(CCCCF)c2ccccc12 | 91 to 93 |
| CCCCCn1nc(-c2cccc(C(F)(F)F)c2Cl)c(=O)c2cccc(OC)c21 | 90 to 91 |
| O=c1c(-c2cccc(C(F)(F)F)c2F)nn(CCCCC(F)(F)F)c2ccccc12 [Compound 4, 3-[2-Fluoro-3-(trifluoromethyl)phenyl]-1-(5,5,5-trifluoropentyl)cinnolin-4(1H)-one] | 118 to 120 |
| O=c1c(-c2cccc(C(F)(F)F)c2F)nn(CCCC(F)(F)F)c2ccccc12 [Compound 6, 3-[2-Fluoro-3-(trifluoromethyl)phenyl]-1-(4,4,4-trifluorobutyl)cinnolin-4(1H)-one] | 96 to 99 |
| CSCCCn1nc(-c2cccc(C(F)(F)F)c2F)c(=O)c2ccccc21 [Compound 7, 3-(2-Fluoro-3-(trifluoromethyl)phenyl)-1-[3-(methylthio)propyl]cinnolin-4(1H)-one] | 80 to 83 |
| COc1ccc(F)cc1-c1nn(CCCC(F)(F)F)c2ccccc2c1=O [Compound 16, 3-(5-Fluoro-2-methoxyphenyl)-1-(4,4,4-trifluorobutyl)cinnolin-4(1H)-one] | 118 to 121 |

| SMILES | melting point [°C] |
| --- | --- |
| O=c1c(-c2cccc(C(F)(F)F)c2Cl)nn(CCCCC(F)(F)F)c2cc(Cl)ccc12 [Compound 17, 7 Chloro-3-[2-chloro-3-(trifluoromethyl)phenyl]-1-(5,5,5-trifluoropentyl)-cinnolin-4(1H)-one] | 137 to 138 |
| COc1cccc2c(=O)c(-c3cccc(C(F)(F)F)c3F)nn(CCCNS(C)(=O)=O)c12 [Compound 18, N-(3-[3-[2-Fluoro-3-(trifluoromethyl)phenyl]-8-methoxy-4-oxocinnolin-1(4H)-yl]propyl)methanesulphonamide] | 62 to 64 |
| COc1cccc2c(=O)c(-c3cccc(C(F)(F)F)c3Cl)nn(CCCNS(C)(=O)=O)c12 [Compound 19, N-[3-[3-[2-Chloro-3-(trifluoromethyl)phenyl]-8-methoxy-4-oxocinnolin-1(4H)-yl]propyl]methanesulphonamide] | 95 to 98 |
| COc1cccc2c(=O)c(-c3cccc(F)c3C(F)(F)F)nn(CCCNS(C)(=O)=O)c12 [Compound 20, N-[3-[3-[3-Fluoro-2-(trifluoromethyl)phenyl]-8-methoxy-4-oxocinnolin-1(4H)-yl]propyl]methanesulphonamide] | 66 to 68 |
| COc1cccc2c(=O)c(-c3cccc(C(F)(F)F)c3F)nn(CCCS(C)(=O)=O)c12 [Compound 24, 3-[2-Fluoro-3-(trifluoromethyl)phenyl]-1-(3-(methanesulphonyl)propyl)-8-methoxy-1H-cinnolin-4-one] | 138 to 139 |
| CS(=O)(=O)NCCCn1nc(-c2cccc(C(F)(F)F)c2F)c(=O)c2ccc(C(F)(F)F)cc21 [Compound 25, N-{3-[3-[2-Fluoro-3-(trifluoromethyl)phenyl]-4-oxo-7-trifluoromethyl-4H-cinnolin-1-yl]propyl}methanesulphonamide] | 128 to 130 |
| CS(=O)(=O)NCCCn1nc(-c2cccc(C(F)(F)F)c2F)c(=O)c2ccccc21 [Compound 27, N-{3-[3-[2-Fluoro-3-(trifluoromethyl)phenyl]-4-oxo-4H-cinnolin-1-yl]-propyl}methanesulphonamide] | 149 to 152 |
| CCSCCn1nc(-c2cccc(C(F)(F)F)c2F)c(=O)c2cccc(OC)c21 [Compound 29, 1-[2-(Ethylthio)ethyl]-3-[2-fluoro-3-(trifluoromethyl)phenyl]-8-methoxycinnolin-4(1H)-one] | 73 to 75 |
| CC[S+]([O-])CCn1nc(-c2cccc(C(F)(F)F)c2F)c(=O)c2cccc(OC)c21 (stereo not drawn) [Compound 30, 1-[2-(Ethylsulphinyl)ethyl]-3-[2-fluoro-3-(trifluoromethyl)phenyl]-8-methoxycinnolin-4(1H)-one] | 99 to 101 |
| CCS(=O)(=O)CCn1nc(-c2cccc(C(F)(F)F)c2F)c(=O)c2cccc(OC)c21 [Compound 31, 1-[2-(Ethylsulphonyl)ethyl]-3-[2-fluoro-3-(trifluoromethyl)phenyl]-8-methoxycinnolin-4(1H)-one] | 138 to 139 |
| COc1cccc2c(=O)c(-c3cccc(OC(F)(F)F)c3)nn(CCCNS(C)(=O)=O)c12 [Compound 35, N-(3-{8-Methoxy-4-oxo-3-[3-(trifluoromethoxy)phenyl]cinnolin-1(4H)-yl}propyl)methanesulphonamide] | 98 to 101 |
| COc1cccc2c(=O)c(-c3cccc(C(F)(F)F)c3F)nn(CCCNS(=O)(=O)C(F)(F)F)c12 [Compound 36, 1,1,1-Trifluoro-N-(3-{3-[2-fluoro-3-(trifluoromethyl)phenyl]-8-methoxy-4-oxocinnolin-1(4H)-yl}propyl)methanesulphonamide] | 127 to 130 |
| COc1cccc2c(=O)c(-c3cccc(C(F)(F)F)c3F)nn(CCCNC(=O)C(F)(F)F)c12 [Compound 37, 2,2,2-Trifluoro-N-(3-{3-[2-fluoro-3-(trifluoromethyl)phenyl]-8-methoxy-4-oxocinnolin-1(4H)-yl}propyl)acetamide] | 51 to 53 |
| CS(=O)(=O)NCCCn1nc(-c2cccc(C(F)(F)F)c2F)c(=O)c2ccc(Cl)cc21 [Compound 38, N-(3-{7-Chloro-3-[2-fluoro-3-(trifluoromethyl)phenyl]-4-oxocinnolin-1(4H)-yl}propyl)methanesulphonamide] | 155 to 157 |
| CCSCCn1nc(-c2cccc(C(F)(F)F)c2F)c(=O)c2ccc(Cl)cc21 [Compound 41, 7-Chloro-1-[2-(ethylthio)ethyl]-3-[2-fluoro-3-(trifluoromethyl)phenyl]cinnolin-4(1H)-one] | 117 to 119 |
| CCSCCn1nc(-c2cccc(OC(F)(F)F)c2)c(=O)c2ccc(Cl)cc21 [Compound 46, 7-Chloro-1-[2-(ethylthio)ethyl]-3-[3-(trifluoromethoxy)phenyl]cinnolin-4(1H)-one] | 66 to 68 |
| CCSCCn1nc(-c2cccc(OC(F)(F)F)c2)c(=O)c2cccc(OC)c21 [Compound 49, 1-[2-(Ethylthio)ethyl]-8-methoxy-3-[3-(trifluoromethoxy)phenyl]cinnolin-4(1H)-one] | 86 to 89 |
| CCS(=O)(=O)CCn1nc(-c2cccc(OC(F)(F)F)c2)c(=O)c2cccc(OC)c21 [Compound 50, 1-[2-(Ethylsulphonyl)ethyl]-8-methoxy-3-[3-(trifluoromethoxy)phenyl]cinnolin-4(1H)-one] | 130 to 132 |
| COc1cccc2c(=O)c(-c3cccc(C(F)(F)F)c3F)nn(CCNS(C)(=O)=O)c12 [Compound 55, N-(2-{3-[2-Fluoro-3-(trifluoromethyl)phenyl]-8-methoxy-4-oxocinnolin-1(4H)-yl}ethyl)methanesulphonamide] | 145 to 146 |
